Test results published in US8871205B2, “Methods and compositions for the treatment of immune disorders” (The University of North Carolina at Chapel Hill, priority 2009, dated 2014).
Entries after “also recorded” stand apart in the source; their conditions may differ.

What was measured:
WT and Plxna4−/− mice [1] = assay: Survival after experimental sepsis induced by CLP; assay type: in vivo; settings: 25 μg/kg 1 h prior to CLP
Experimental: (§1) WT and Plxna4^−/− peritoneal macrophages were stimulated with LPS (1 μg/ml) for 4 h in the absence or presence of either Sema3A-Fc or Sema6A-Fc fusion proteins (20 or 100 μg/ml) (FIG. 7A and FIG. 7B). Messenger RNA (FIG. 7A) or protein (FIG. 7B) levels of TNF-α and IL-6 were measured by RT-PCR and ELISA, respectively. The IgG Fc fragment (100 μg/ml) was used as a negative control. WT and Plxna4^−/− mice (n=7˜9 per group) were pretreated with either Sema3A-Fc or IgG Fc control proteins at a dosage of 25 μg per kg body weight 1 h prior to CLP procedure (FIG. 7C). Survival rate was monitored for 5 days. τP<0.05 compared with WT mice pretreated with Sema3A-Fc. […] Inflammatory cytokines in peritoneal lavage collected 4 h after CLP were determined by ELISA. * P<0.05 compared to peritoneal lavage from WT mice pretreated with Sema3A-Fc (FIG. 7E). […] Inflammatory cytokines in peritoneal lavage collected 4 h after CLP were determined by ELISA. *P<0.05 compared with peritoneal lavage from WT mice pretreated with Sema3A-Fc (FIG. 7G).
CLP surgery was performed on mice as previously described with minor modifications (Wen et al., 2008). […] For survival studies, mice subjected to surgery were monitored for 5 days. […] Colonies were counted and expressed as CFU/ml. […]
We next assessed if Sema3A engagement of plexin-A4 could synergistically exacerbate CLP-induced septic inflammation. […]

WT and Plxna4−/− mice [2] = assay: Inflammatory cytokines in peritoneal lavage after CLP (ELISA); assay type: in vivo; settings: 25 μg/kg 1 h prior to CLP, 4 h after CLP, versus IgG Fc-treated controls
Experimental: as §1
Cytokines generated by in vitro cultured peritoneal macrophages were quantified using the ELISA Set for mouse TNF-α or IL-6 (BD Biosciences) and mouse IFN-β ELISA Kit (PBL InterferonSource). […]
CLP surgery was performed on mice as previously described with minor modifications (Wen et al., 2008). […] For survival studies, mice subjected to surgery were monitored for 5 days. […]

Rac1 = biological target: T1, Rac1 (Mus musculus, UniProt P63001); assay: Detection of GTP-bound Rac1 (pull-down) in macrophages; assay type: cell-based
T1 construct: endogenous in cells; host or cells: primary mouse peritoneal macrophages (WT, Plxna4-/-)
Experimental: The assays for GTP-bound Rac1, Cdc42 and RhoA were performed as described (Noren et al., 2000). Briefly, peritoneal macrophages were stimulated with 1 μg/ml LPS for various time periods. Cells were lysed and GTP-bound Rac1 and Cdc42 were affinity precipitated using Rac1/Cdc42-binding domain of PAK (PBD) fused with GST. GTP-bound RhoA was affinity precipitated using RhoA-binding domain of rhotekin (RBD) fused with GST. Bound proteins were resolved on a NuPAGE® (SDS PAGE) gel and were transferred onto nitrocellulose membranes. Membranes were immunoblotted with the appropriate primary antibodies against Rac1, Cdc42 or RhoA.
To assess a converging point for TLR and plexin-A4, we assayed for GTP-bound Rac1.

[3] = test system: WT or Plxna4−/− peritoneal macrophages; assay: TNF-α and IL-6 production (RT-PCR, ELISA) in peritoneal macrophages stimulated with Sema3A-Fc or Sema6A-Fc in the absence or presence of LPS; assay type: cell-based, mouse
Experimental: Messenger RNA (FIG. 7A) or protein (FIG. 7B) levels of TNF-α and IL-6 were measured by RT-PCR and ELISA, respectively. The IgG Fc fragment (100 μg/ml) was used as a negative control. WT and Plxna4^−/− mice (n=7˜9 per group) were pretreated with either Sema3A-Fc or IgG Fc control proteins at a dosage of 25 μg per kg body weight 1 h prior to CLP procedure (FIG. 7C). Survival rate was monitored for 5 days. τP<0.05 compared with WT mice pretreated with Sema3A-Fc. WT mice (n=4 per group) were pretreated with either Sema3A-Fc or IgG Fc control proteins, followed by CLP surgery (FIG. 7D). Inflammatory cytokines in peritoneal lavage collected 4 h after CLP were determined by ELISA. * P<0.05 compared to peritoneal lavage from WT mice pretreated with Sema3A-Fc (FIG. 7E). […] WT and Plxna4^−/− mice (n=4 per group experiment) were pretreated with either Sema3A-Fc or IgG Fc control proteins at a dosage of 25 ug/kg body weight 1 hour before CLP procedure. Inflammatory cytokines in peritoneal lavage collected 4 h after CLP were determined by ELISA. *P<0.05 compared with peritoneal lavage from WT mice pretreated with Sema3A-Fc (FIG. 7G).
(§2) Total peritoneal cells were harvested from the peritoneal cavities of naïve WT or Plxna4^−/− mice with two 10 ml cold sterile PBS wash. Lavage was pooled for mice in the same group. RBCs were lysed in ammonium chloride buffer (150 mM NH4CL, 10 mM NaHCO3, 1 mM EDTA-tetrasodium). The remaining cells were thoroughly washed with PBS and counted in a hemocytometer. Cytospins were prepared and stained with Diff-Quik solutions, and the number of peritoneal macrophages was determined. […]
(§3) Cytokines generated by in vitro cultured peritoneal macrophages were quantified using the ELISA Set for mouse TNF-α or IL-6 (BD Biosciences) and mouse IFN-β ELISA Kit (PBL InterferonSource). For the in vivo experiments, concentrations of TNF-α, IL-1β, IL-6, IL-12p70, CCL2 and CCL3 were measured in cell-free peritoneal lavage fluid, serum, and lung homogenate using a Customized Mouse Cytokine 6-plex Panel (BioLegend) and a Luminex Bio-Plex 200 system (Bio-Rad Laboratories). […]

peritoneal macrophages = assay: TLR agonist-induced cytokine production (ELISA) in peritoneal macrophages pretreated with Rac1 inhibitor; assay type: cell-based, mouse
Experimental: Immunoblot analysis of NF-κB and mitogen-activated protein kinase (MAPK) signaling molecules was performed with WT and Plxna4^−/− peritoneal macrophages left untreated (0) or treated for 15, 30 or 60 min with 1 μg/ml ultrapure LPS (FIG. 3A). FIG. 3B and FIG. 3C show chromatin immunoprecipitation (ChIP) assays of the binding of p65 or c-Jun at the promoter regions of Tnfa and Il6 gene in WT and Plxna4^−/− peritoneal macrophages left untreated or treated with 10 μg/ml poly(I:C), 1 μg/ml ultrapure LPS (B), 5 μg/ml Pam3Cys or 4 μg/ml CpG (C) for 1 h. Cells were left untreated (0) or treated for 15 or 30 min with 1 μg/ml ultrapure LPS. Rac1, Cdc42 and RhoA pull-down analysis were performed as described in the Examples section. Total Rac1, Cdc42 and RhoA in cell lysate were used as controls. […] Protein levels of TNF-α and IL-6 were measured by ELISA. The results shown are representative of three independent experiments and are expressed as mean±s.d. * P<0.05 compared to WT peritoneal macrophages without NSC23766 pretreatment.
as §2, with “Lavage was pooled for mice in the same group. RBCs were lysed in ammonium chloride buffer (150 mM NH4CL, 10 mM NaHCO3, 1 mM EDTA-tetrasodium).” left out
as §3

Compound	survival rate (WT and Plxna4−/− mice [1])	levels of inflammatory cytokines in peritoneal lavage (WT and Plxna4−/− mice [2])	Rac1 activation (GTP-bound Rac1) (Rac1; Myd88−/− macrophages)	Rac1 activation (GTP-bound Rac1) (Rac1; Plxna4−/− macrophages)	Rac1 activation (GTP-bound Rac1) (Rac1; WT macrophages, LPS and Sema3A together)	Rac1 activation (GTP-bound Rac1) (Rac1; WT macrophages, single stimulus)	LPS-induced TNF-α and IL-6 production (enhancement in LPS-responsiveness) ([3]; Plxna4−/− macrophages)	LPS-induced TNF-α and IL-6 production ([3]; WT peritoneal macrophages, suboptimal LPS, fusion proteins 20 or 100 μg/ml)	TNF-α and IL-6 production ([3]; semaphorin alone, absence of LPS, macrophages)	cytokine production (peritoneal macrophages; TLR-activated Plxna4−/− macrophages, NSC23766 pretreatment)	IFN-β production (peritoneal macrophages; WT macrophages, Rac1 inhibition)	TNF-α and IL-6 production (peritoneal macrophages; WT peritoneal macrophages, NSC23766 200 μM pretreatment 1 h, various TLR agonists 4 h, ELISA)
Sema3A: Recombinant human Sema3A-Fc (1250-S3, R&D); chimeric protein of human IgG1 Fc fragment fused to Sema3A; plexin-A4 ligand	did not affect	significantly higher levels	neither Sema3A nor LPS activated; also recorded: attenuated	not observed	enhanced this activation	resulted in Rac1 activation	completely abolished	enhanced	Neither Sema3A nor Sema6A alone induced; also recorded: failed to induce cytokine production	–	–	–
CCN(CC)CCCC(C)Nc1nc(C)cc(Nc2ccc3nc(C)cc(N)c3c2)n1 (stereo not drawn) [NSC23766]	–	–	–	–	–	–	–	–	–	no inhibitory effect	not affected	significantly attenuate
